Like-named read-outs stand apart in the source and are kept apart here.
Key:
Assay type in all cases: binding
[1] = molecular target: T1, HeLa cell extract proteins (Homo sapiens, UniProt O00165); conditions: captured protein HAX1; HeLa
T1 construct: endogenous in cells; host or cells: HeLa cell extract

[2] = molecular target: T2, HeLa cell extract proteins (Homo sapiens, UniProt O75396); conditions: protein SEC22B; HeLa
T2 construct: endogenous in cells; host or cells: HeLa cell extract
T2 sequence (O75396 1-215): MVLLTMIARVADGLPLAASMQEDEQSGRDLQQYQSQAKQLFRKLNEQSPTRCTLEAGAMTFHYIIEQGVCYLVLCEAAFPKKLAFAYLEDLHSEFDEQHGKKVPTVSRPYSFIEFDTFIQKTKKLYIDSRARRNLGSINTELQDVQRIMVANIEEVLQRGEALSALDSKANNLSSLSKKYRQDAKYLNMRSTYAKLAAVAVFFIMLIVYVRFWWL

[3] = molecular target: T3, HeLa cell extract proteins (Homo sapiens, UniProt P39687); conditions: protein ANP32A; HeLa
T3 construct: endogenous in cells; host or cells: HeLa cell extract
T3 sequence (P39687 whole entry): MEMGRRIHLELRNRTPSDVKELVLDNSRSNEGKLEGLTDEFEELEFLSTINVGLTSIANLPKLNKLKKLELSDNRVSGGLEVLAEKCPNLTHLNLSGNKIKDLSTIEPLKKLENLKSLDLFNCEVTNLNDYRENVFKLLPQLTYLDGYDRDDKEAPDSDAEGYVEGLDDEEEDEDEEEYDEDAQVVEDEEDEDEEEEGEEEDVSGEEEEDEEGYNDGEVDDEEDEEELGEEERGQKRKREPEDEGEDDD

[4] = molecular target: T4, HeLa cell extract proteins (Homo sapiens, UniProt P62495); conditions: protein ETF1; HeLa
T4 construct: endogenous in cells; host or cells: HeLa cell extract

[5] = molecular target: T5, HeLa cell extract proteins (Homo sapiens, UniProt Q5BJD5); conditions: captured protein TMEM41B; HeLa
T5 construct: endogenous in cells; host or cells: HeLa cell extract
T5 sequence (Q5BJD5 1-291): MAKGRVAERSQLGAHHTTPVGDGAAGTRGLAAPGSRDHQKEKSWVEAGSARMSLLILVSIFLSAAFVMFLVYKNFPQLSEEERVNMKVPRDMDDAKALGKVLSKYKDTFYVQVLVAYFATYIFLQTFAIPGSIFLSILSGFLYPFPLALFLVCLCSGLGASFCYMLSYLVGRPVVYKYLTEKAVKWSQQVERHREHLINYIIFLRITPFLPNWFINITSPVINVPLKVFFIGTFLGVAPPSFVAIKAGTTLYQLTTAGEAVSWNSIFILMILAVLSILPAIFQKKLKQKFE

[6] = molecular target: T6, HeLa cell extract proteins (Homo sapiens, UniProt Q9BVA1); conditions: HeLa; protein TUBB2B
T6 construct: endogenous in cells; host or cells: HeLa cell extract
T6 sequence (Q9BVA1 whole entry): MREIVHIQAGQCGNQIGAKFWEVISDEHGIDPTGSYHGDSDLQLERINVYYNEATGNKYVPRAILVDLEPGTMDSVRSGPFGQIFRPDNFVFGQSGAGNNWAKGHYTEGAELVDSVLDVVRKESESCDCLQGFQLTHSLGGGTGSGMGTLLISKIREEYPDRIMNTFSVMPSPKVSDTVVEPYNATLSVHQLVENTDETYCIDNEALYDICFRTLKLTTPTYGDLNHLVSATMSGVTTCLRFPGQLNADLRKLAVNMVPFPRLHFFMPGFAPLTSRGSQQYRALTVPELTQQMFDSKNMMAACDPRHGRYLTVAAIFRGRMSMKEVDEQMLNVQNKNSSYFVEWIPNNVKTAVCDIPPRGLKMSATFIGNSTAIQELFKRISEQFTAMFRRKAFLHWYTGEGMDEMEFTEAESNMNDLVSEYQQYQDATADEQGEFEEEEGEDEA

[7] = molecular target: T7, HeLa cell extract proteins (Homo sapiens, UniProt O95817)
T7 construct: endogenous in cells; host or cells: HeLa cell extract
T7 sequence (O95817 whole entry): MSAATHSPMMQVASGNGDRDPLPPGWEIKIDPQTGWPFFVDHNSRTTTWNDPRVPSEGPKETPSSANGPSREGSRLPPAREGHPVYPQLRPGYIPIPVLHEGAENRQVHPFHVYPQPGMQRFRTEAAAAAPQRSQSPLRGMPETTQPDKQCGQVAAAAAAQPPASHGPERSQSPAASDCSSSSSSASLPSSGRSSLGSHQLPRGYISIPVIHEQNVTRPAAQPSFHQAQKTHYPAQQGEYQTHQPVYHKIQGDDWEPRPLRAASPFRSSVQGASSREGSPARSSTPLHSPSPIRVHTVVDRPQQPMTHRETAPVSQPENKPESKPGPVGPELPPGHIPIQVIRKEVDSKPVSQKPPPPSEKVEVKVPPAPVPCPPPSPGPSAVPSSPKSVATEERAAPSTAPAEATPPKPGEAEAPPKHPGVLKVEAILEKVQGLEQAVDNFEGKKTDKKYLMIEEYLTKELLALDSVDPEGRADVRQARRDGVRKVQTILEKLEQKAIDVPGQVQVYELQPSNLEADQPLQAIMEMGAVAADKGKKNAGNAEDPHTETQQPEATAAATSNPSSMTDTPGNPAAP

[8] = molecular target: T8, HeLa cell extract proteins (Homo sapiens, UniProt P52888)
T8 construct: endogenous in cells; host or cells: HeLa cell extract
T8 sequence (P52888 whole entry): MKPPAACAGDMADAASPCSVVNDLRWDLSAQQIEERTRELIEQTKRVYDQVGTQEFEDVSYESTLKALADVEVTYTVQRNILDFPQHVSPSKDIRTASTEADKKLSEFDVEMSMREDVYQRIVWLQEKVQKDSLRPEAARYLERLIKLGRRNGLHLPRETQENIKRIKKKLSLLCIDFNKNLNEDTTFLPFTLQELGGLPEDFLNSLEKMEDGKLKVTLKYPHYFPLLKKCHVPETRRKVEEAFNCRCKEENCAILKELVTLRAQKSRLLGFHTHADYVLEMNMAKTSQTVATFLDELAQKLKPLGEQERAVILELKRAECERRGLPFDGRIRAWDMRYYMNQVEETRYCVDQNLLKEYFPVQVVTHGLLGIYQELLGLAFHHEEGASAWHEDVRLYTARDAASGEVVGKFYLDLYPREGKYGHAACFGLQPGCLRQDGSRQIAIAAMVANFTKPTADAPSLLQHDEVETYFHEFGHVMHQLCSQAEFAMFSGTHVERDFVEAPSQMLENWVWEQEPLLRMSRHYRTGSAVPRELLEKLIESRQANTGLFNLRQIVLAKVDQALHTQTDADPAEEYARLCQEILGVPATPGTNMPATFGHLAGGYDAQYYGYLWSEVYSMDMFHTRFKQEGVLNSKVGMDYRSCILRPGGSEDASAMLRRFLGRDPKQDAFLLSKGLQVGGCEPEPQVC

[9] = molecular target: T9, HeLa cell extract proteins (Homo sapiens, UniProt P55209)
T9 construct: endogenous in cells; host or cells: HeLa cell extract
T9 sequence (P55209 1-391): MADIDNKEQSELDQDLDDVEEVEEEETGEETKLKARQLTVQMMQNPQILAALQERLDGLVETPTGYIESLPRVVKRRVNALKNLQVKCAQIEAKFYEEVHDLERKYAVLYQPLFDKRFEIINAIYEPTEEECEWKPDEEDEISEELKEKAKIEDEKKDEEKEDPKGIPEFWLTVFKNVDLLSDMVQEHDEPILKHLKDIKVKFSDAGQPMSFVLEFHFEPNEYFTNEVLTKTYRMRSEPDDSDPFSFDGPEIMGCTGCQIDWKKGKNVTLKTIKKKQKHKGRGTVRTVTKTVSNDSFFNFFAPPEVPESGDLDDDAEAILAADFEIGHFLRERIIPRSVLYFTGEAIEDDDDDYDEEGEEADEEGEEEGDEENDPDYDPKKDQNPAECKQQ

[10] = molecular target: T10, HeLa cell extract proteins (Homo sapiens, UniProt P61088)
T10 construct: endogenous in cells; host or cells: HeLa cell extract
T10 sequence (P61088 1-152): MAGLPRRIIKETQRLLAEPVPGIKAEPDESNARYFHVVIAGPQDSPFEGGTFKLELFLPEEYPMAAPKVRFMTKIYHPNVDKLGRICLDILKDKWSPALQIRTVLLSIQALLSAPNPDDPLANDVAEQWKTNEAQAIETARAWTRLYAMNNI

[11] = molecular target: T11, HeLa cell extract proteins (Homo sapiens, UniProt Q14157)
T11 construct: endogenous in cells; host or cells: HeLa cell extract
T11 sequence (Q14157 1-1087): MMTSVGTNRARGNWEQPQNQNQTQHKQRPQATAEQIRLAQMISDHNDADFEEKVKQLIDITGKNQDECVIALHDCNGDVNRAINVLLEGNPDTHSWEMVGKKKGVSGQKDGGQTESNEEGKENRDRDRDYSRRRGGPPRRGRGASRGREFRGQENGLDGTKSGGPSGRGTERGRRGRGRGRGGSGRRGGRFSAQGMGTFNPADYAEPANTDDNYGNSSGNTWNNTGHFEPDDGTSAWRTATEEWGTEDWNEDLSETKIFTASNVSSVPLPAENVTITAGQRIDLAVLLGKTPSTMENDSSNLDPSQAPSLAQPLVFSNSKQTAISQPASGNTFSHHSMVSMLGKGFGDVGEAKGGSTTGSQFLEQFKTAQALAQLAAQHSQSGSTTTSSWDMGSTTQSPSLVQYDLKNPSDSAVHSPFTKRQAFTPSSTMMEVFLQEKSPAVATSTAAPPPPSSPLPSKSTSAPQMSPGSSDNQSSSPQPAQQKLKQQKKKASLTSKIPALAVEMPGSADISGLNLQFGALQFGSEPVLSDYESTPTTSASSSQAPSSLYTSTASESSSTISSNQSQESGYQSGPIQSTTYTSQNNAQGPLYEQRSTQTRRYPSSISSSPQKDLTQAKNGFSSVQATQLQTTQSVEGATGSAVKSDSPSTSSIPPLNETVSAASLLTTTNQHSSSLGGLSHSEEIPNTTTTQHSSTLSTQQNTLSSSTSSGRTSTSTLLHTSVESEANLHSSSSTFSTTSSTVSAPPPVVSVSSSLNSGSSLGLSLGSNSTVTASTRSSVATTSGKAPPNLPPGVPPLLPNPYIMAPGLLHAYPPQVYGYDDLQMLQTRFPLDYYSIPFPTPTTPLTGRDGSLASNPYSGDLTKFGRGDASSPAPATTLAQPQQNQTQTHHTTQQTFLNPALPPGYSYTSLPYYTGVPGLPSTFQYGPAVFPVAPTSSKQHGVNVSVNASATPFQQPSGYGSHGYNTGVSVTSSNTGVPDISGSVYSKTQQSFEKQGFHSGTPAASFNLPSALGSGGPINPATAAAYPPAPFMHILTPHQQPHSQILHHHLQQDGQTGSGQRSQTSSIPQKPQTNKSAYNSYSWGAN

[12] = molecular target: T12, HeLa cell extract proteins (Homo sapiens, UniProt Q15393)
T12 construct: endogenous in cells; host or cells: HeLa cell extract
T12 sequence (Q15393 whole entry): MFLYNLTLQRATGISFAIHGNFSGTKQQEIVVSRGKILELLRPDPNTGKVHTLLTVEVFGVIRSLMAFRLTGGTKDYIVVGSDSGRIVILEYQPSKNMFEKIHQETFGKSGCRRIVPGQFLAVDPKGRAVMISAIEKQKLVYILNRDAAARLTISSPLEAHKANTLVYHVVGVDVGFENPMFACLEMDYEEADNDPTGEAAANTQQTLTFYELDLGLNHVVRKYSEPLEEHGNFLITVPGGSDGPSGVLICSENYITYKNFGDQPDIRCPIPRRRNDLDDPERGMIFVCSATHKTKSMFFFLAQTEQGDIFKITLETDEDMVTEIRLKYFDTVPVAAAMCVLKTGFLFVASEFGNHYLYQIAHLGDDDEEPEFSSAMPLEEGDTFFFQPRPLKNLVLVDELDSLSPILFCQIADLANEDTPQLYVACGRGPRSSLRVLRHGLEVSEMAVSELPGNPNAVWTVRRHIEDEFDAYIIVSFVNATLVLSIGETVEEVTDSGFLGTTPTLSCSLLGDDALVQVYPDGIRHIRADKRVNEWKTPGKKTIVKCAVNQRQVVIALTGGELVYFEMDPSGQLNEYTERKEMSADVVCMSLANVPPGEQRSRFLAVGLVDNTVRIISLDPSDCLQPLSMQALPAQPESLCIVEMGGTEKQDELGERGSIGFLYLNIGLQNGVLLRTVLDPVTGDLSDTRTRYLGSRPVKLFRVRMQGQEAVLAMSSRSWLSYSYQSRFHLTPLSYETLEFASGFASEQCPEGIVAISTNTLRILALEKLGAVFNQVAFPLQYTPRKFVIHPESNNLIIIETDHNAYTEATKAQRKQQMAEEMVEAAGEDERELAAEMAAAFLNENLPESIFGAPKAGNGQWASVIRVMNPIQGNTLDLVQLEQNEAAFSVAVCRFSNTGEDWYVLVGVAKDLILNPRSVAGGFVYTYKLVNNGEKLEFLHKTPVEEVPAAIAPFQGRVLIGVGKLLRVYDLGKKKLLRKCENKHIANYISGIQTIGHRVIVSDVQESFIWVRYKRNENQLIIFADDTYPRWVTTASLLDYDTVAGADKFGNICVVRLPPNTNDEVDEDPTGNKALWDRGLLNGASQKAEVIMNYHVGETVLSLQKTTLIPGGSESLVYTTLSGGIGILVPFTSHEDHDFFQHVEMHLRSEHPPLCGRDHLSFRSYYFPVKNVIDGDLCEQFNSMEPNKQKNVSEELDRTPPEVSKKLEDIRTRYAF

[13] = molecular target: T13, HeLa cell extract proteins (Homo sapiens, UniProt Q99805)
T13 construct: endogenous in cells; host or cells: HeLa cell extract
T13 sequence (Q99805 29-663): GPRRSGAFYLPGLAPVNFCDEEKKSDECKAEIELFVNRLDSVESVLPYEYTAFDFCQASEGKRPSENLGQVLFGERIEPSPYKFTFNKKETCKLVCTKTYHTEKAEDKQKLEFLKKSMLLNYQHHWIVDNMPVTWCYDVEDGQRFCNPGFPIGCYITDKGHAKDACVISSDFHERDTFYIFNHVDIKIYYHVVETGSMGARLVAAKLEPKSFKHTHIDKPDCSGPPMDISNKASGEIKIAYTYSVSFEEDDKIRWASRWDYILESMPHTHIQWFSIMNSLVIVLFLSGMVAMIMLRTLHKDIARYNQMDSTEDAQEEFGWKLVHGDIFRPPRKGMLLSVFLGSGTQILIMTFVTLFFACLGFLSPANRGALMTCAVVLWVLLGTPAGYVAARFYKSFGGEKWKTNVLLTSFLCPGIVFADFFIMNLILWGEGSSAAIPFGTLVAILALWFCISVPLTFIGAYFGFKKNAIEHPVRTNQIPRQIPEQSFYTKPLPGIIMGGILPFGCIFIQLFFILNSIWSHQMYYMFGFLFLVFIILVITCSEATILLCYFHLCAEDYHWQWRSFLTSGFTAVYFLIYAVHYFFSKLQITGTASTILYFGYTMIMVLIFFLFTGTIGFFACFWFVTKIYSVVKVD

T1 sequence (O00165 whole entry): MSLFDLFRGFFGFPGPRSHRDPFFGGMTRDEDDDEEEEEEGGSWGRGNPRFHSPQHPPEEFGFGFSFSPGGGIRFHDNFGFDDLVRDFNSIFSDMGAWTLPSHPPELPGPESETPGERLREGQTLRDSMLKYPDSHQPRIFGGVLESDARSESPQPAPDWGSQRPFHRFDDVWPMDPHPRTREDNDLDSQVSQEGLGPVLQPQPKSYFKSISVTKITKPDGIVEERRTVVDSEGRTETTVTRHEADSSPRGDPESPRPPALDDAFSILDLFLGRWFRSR

CCCCCCOc1cccc(Cc2cnc(N)nc2N)c1 [compound 2]
fold changes relative to vehicle control [1]: 1.1 | fold changes relative to vehicle control [2]: 1.41 | fold changes relative to vehicle control [3]: 2.37 | fold changes relative to vehicle control [4]: 1.92 | fold changes relative to vehicle control [5]: 1.09 | fold changes relative to vehicle control [6]: 1.03

NCCOCCOCC(=O)Nc1nc2ncc(CNc3ccc(C(=O)NC(CCC(=O)O)C(=O)O)cc3)nc2c(=O)[nH]1 (stereo not shown) [compound 6]
fold changes relative to vehicle control ([7]; HeLa, protein BAG3): 1.17 | fold changes relative to vehicle control ([8]; protein THOP1, HeLa): 1.16 | fold changes relative to vehicle control ([9]; HeLa, captured protein NAP1L1): 1.19 | fold changes relative to vehicle control ([10]; HeLa, protein UBE2N): 1.78 | fold changes relative to vehicle control ([11]; HeLa, protein UBAP2L): 1.1 | fold changes relative to vehicle control ([12]; HeLa, protein SF3B3): 1.18 | fold changes relative to vehicle control ([13]; HeLa, protein TM9SF2): 0.84

CCCCCCOc1ccc(Cc2cnc(N)nc2N)cc1 [compound 1]
fold changes relative to vehicle control [1]: 0.92 | fold changes relative to vehicle control [2]: 0.96 | fold changes relative to vehicle control [3]: 1.44 | fold changes relative to vehicle control [4]: 1.08 | fold changes relative to vehicle control [5]: 1.09 | fold changes relative to vehicle control [6]: 1.07

Nc1nc2c(c(=O)[nH]1)N(C=O)C(CNc1ccc(C(=O)N[C@@H](CCC(=O)O)C(=O)O)cc1)CN2 (stereo partly shown) [LEU, leucovorin]
fold changes relative to vehicle control ([7]; HeLa, protein BAG3): 0.91 | fold changes relative to vehicle control ([8]; protein THOP1, HeLa): 0.87 | fold changes relative to vehicle control ([9]; HeLa, captured protein NAP1L1): 0.97 | fold changes relative to vehicle control ([10]; HeLa, protein UBE2N): 1.06 | fold changes relative to vehicle control ([11]; HeLa, protein UBAP2L): 0.9 | fold changes relative to vehicle control ([12]; HeLa, protein SF3B3): 1.09 | fold changes relative to vehicle control ([13]; HeLa, protein TM9SF2): 0.74

NCCCNc1ccc(C(=O)NC(CCC(=O)O)C(=O)O)cc1 (stereo not shown) [compound 7]
fold changes relative to vehicle control ([7]; HeLa, protein BAG3): 0.89 | fold changes relative to vehicle control ([8]; protein THOP1, HeLa): 0.83 | fold changes relative to vehicle control ([9]; HeLa, captured protein NAP1L1): 1.06 | fold changes relative to vehicle control ([10]; HeLa, protein UBE2N): 1.19 | fold changes relative to vehicle control ([11]; HeLa, protein UBAP2L): 1.08 | fold changes relative to vehicle control ([12]; HeLa, protein SF3B3): 1.19 | fold changes relative to vehicle control ([13]; HeLa, protein TM9SF2): 0.82

Nc1nc2[nH]cc(CCc3ccc(C(=O)N[C@@H](CCC(=O)O)C(=O)O)cc3)c2c(=O)[nH]1 [PTX, pemetrexed]
fold changes relative to vehicle control [7]: 0.96 | fold changes relative to vehicle control [8]: 0.95 | fold changes relative to vehicle control [9]: 1.04 | fold changes relative to vehicle control [10]: 1.83 | fold changes relative to vehicle control [11]: 0.98 | fold changes relative to vehicle control [12]: 1.16 | fold changes relative to vehicle control [13]: 0.76

Nc1nc2cccc(-c3ccccc3)c2n1Cc1ccc(Cl)c(Cl)c1 [compound 3]
fold changes relative to vehicle control [1]: 1.13 | fold changes relative to vehicle control [2]: 0.89 | fold changes relative to vehicle control [3]: 0.78 | fold changes relative to vehicle control [4]: 1.24 | fold changes relative to vehicle control [5]: 1.08 | fold changes relative to vehicle control [6]: 1.11

Reference: PMC6199744, “Development of Chemical Proteomics for the Folateome and Analysis of the Kinetoplastid Folateome” (ACS Infectious Diseases, 2018)
